Columns and labels:
[1] = molecular target: T1, 11-beta-hydroxysteroid dehydrogenase type 2 (Homo sapiens, UniProt P80365); experiment: biochemical
T1 sequence (P80365 whole entry): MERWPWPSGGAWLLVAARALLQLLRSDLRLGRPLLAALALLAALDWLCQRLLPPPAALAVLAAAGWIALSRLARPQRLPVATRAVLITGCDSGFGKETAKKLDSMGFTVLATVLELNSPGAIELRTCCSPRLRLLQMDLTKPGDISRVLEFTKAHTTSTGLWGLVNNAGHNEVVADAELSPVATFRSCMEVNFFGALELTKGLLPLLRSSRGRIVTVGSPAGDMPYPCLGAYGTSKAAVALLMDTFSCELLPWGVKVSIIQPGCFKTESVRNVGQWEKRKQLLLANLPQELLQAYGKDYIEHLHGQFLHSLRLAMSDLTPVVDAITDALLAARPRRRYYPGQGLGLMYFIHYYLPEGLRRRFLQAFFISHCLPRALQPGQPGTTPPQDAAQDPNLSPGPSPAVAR
Description: Binding affinity to human 11beta HSD2 in HEK293 cells by scintillation proximity assay

[2] = molecular target: 11-beta-hydroxysteroid dehydrogenase 1 (Homo sapiens, UniProt P28845)
Description: Binding affinity to human 11beta HSD1 expressed in Escherichia coli by scintillation proximity assay

[3] = Plasma concentration in C57BL/6 mouse plasma at 30 mg/kg, po after 6 hrs; assay type: ADME, organism-based; parameters: dose 30 mg/kg, route oral
Rattus norvegicus = experiment: AUC(0 to infinity) in rat at 2 mg/kg, po; assay type: ADME, organism-based, Plasma; parameters: time infinity, dose 2 mg/kg, route oral; conditions: in vivo
[4] = molecular target: 11-beta-hydroxysteroid dehydrogenase 1 (Mus musculus, UniProt P50172); experiment: Binding affinity to C57BL/6 mouse recombinant 11beta HSD1 by scintillation proximity assay
Mus musculus [5] = experiment: Ex vivo inhibition of 11beta HSD1 activity in C57BL/6 mouse adipose tissue at 30 mg/kg, po after 2 hrs; assay type: functional; parameters: scale not given: the % may be the effect or the level left
Mus musculus [6] = experiment: Ex vivo inhibition of 11beta HSD1 activity in C57BL/6 mouse liver at 30 mg/kg, po after 2 hrs; assay type: functional; parameters: scale not given: the % may be the effect or the level left
[7] = Oral bioavailability in rat at 2 mg/kg; assay type: ADME, organism-based; conditions: in vivo
[8] = Plasma concentration in C57BL/6 mouse plasma at 30 mg/kg, po after 2 hrs; assay type: ADME, organism-based; parameters: dose 30 mg/kg, route oral
[9] = Ratio of Ki for mouse 11beta HSD1 over Ki for human 11beta HSD1
[10] = Tmax in rat at 2 mg/kg, po; assay type: ADME, organism-based; parameters: dose 2 mg/kg, route oral; conditions: in vivo
Plasma [11] = experiment: Protein binding in C57BL/6 mouse plasma assessed as fraction unbound at 30 mg/kg, po after 2 hrs; assay type: ADME, organism-based; parameters: dose 30 mg/kg, route oral; conditions: in vivo
[12] = Volume of distribution at steady state in rat at 0.5 mg/kg, iv; assay type: ADME, organism-based; parameters: dose 0.5 mg/kg, route intravenous; conditions: in vivo, read-out: Vdss
[13] = Clearance in rat at 0.5 mg/kg, iv; assay type: ADME, organism-based; parameters: dose 0.5 mg/kg, route intravenous; conditions: in vivo
Mus musculus [14] = experiment: Ex vivo inhibition of 11beta HSD1 activity in C57BL/6 mouse liver at 30 mg/kg, po after 6 hrs; assay type: functional; parameters: scale not given: the % may be the effect or the level left
Plasma [15] = experiment: Protein binding in C57BL/6 mouse plasma assessed as fraction unbound at 30 mg/kg, po after 6 hrs; assay type: ADME, organism-based; parameters: dose 30 mg/kg, route oral; conditions: in vivo
[16] = molecular target: 11-beta-hydroxysteroid dehydrogenase 1 (Rattus norvegicus, UniProt P16232); experiment: Binding affinity to rat recombinant 11beta HSD1 by scintillation proximity assay
Mus musculus [17] = experiment: Ex vivo inhibition of 11beta HSD1 activity in C57BL/6 mouse adipose tissue at 30 mg/kg, po after 6 hrs; assay type: functional; parameters: scale not given: the % may be the effect or the level left
[18] = Half life in rat at 2 mg/kg, po; assay type: ADME, organism-based; parameters: dose 2 mg/kg, route oral; conditions: in vivo

Sequence of 11-beta-hydroxysteroid dehydrogenase 1 (Homo sapiens, UniProt P28845) (P28845 whole entry): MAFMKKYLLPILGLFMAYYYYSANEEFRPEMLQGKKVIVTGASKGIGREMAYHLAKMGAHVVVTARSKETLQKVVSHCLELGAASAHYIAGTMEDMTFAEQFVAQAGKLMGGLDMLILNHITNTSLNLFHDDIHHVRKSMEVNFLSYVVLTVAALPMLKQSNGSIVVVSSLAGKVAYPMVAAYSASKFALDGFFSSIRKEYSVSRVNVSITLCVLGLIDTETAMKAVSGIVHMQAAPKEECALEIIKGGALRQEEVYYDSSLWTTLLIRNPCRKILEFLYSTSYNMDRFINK
Sequence of 11-beta-hydroxysteroid dehydrogenase 1 (Rattus norvegicus, UniProt P16232) (P16232 whole entry): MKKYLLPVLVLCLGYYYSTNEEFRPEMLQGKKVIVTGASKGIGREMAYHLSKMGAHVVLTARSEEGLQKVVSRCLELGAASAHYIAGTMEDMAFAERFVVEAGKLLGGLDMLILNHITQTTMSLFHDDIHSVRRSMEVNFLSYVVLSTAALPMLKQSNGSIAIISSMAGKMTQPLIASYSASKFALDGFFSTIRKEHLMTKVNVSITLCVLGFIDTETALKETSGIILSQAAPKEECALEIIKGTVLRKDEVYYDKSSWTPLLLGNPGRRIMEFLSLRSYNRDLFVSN
Sequence of 11-beta-hydroxysteroid dehydrogenase 1 (Mus musculus, UniProt P50172) (P50172 whole entry): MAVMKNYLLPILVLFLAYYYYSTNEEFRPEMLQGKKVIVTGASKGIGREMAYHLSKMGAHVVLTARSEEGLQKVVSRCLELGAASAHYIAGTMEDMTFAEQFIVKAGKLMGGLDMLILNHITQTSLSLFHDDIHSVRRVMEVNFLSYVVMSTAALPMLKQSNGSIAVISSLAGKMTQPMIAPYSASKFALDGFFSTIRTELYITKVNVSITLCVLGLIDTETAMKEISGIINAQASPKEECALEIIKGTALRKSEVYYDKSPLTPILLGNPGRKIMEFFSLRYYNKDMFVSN

IC50 [1] | Ki [2] | Structure (SMILES) | also measured
> 10 µM | 0.047 µM | CCC1(C)SC(NC2CCCCCCC2)=NC1=O (racemic) | –
– | 0.151 µM | CCC1(C)SC(Nc2ccccc2F)=NC1=O (configuration not stated) | –
> 10 µM | 0.013 µM | CCC1(CC)SC(NC23CC4CC(CC2C4)C3)=NC1=O | –
> 10 µM | 0.073 µM | CCC1(C)SC(NC23CCC(CC2)C3)=NC1=O (racemic) | –
> 10 µM | 0.003 µM | O=C1N=C(NC23CC4CC(CC2C4)C3)SC12CCCC2 | concentration at 6 h [3]: 7.3 µM; AUC (Rattus norvegicus): 175 ng·h/mL; Ki [4]: 0.12 µM; Activity (Mus musculus [5]): 86%; Activity (Mus musculus [6]): 89%; bioavailability [7]: 45%; concentration at 2 h [8]: 20 µM; Ratio Ki [9]: 40; Tmax [10]: 2.5 h; Activity (Plasma [11]): 120 nM; Fu (Plasma [11]): 0.63%; Vd [12]: 1.84 L/kg; clearance [13]: 104 mL/min/kg; Activity (Mus musculus [14]): 79%; Activity (Plasma [15]): 44 nM; Fu (Plasma [15]): 0.63%; Ki [16]: 0.18 µM; Activity (Mus musculus [17]): 87%; half-life [18]: 2 h
> 10 µM | 0.028 µM | CCCC1(C)SC(NC2CCCCCCC2)=NC1=O (racemic) | –
– | 0.372 µM | CCC1(C)SC(NC2C3CCC2CC3)=NC1=O (racemic) | –
> 10 µM | 0.013 µM | CCC1(C)SC(NC23CC4CC(CC2C4)C3)=NC1=O (racemic) | –
– | 0.02 µM | CCC1(CC)SC(NC23CC4CC(CC(C4)C2)C3)=NC1=O | –
– | 0.024 µM | CCCC1(C)SC(NC23CC4CC(CC(C4)C2)C3)=NC1=O (racemic) | –
– | 0.064 µM | CCC1(C)SC(NCC2CCCCC2)=NC1=O (racemic) | –
> 10 µM | 0.189 µM | CCC1SC(Nc2ccccc2C)=NC1=O (configuration not stated) | –
> 10 µM | 0.082 µM | CCC1(C)SC(NC2CCCCCC2)=NC1=O (racemic) | –
> 10 µM | 0.149 µM | CCCC1(C)SC(NC2C3CCC2CC3)=NC1=O (racemic) | –
– | 0.034 µM | CCCC1(C)SC(NCC2CCCCC2)=NC1=O (racemic) | –
> 10 µM | 0.014 µM | O=C1N=C(NC2CCCCCCC2)SC12CCCC2 | –
– | 0.028 µM | O=C1N=C(NC23CC4CC(CC(C4)C2)C3)SC12CCCC2 | –
– | 0.058 µM | CCC1(C)SC(NC2C(C)(C)C2(C)C)=NC1=O (racemic) | –
– | 0.012 µM | CCCC1(C)SC(NC23CC4CC(CC2C4)C3)=NC1=O (racemic) | –
– | 0.055 µM | CCCC1(C)SC(NC2CCCCC2)=NC1=O (racemic) | –
– | 0.024 µM | CCC1(C)SC(NC23CC4CC(CC(C4)C2)C3)=NC1=O (racemic) | –
– | 0.025 µM | CCCC1(C)SC(NC23CCC(CC2)C3)=NC1=O (racemic) | –
– | 0.038 µM | CCCC1(C)SC(NC2C(C)(C)C2(C)C)=NC1=O (racemic) | –
– | 0.126 µM | CCC1(C)SC(NC2CCCCC2)=NC1=O (racemic) | –
> 10 µM | 0.032 µM | CCCC1(C)SC(NC2CCCCCC2)=NC1=O (racemic) | –
> 10 µM | 0.026 µM | CCC1(CC)SC(NC2CCCCCCC2)=NC1=O | –
